The structures appear in SMILES notation.

The first experiment deals with wheat rust fungi (Puccinia recondita). In words: Wheat rust control test, foliar spray on wheat. The class given is in vivo. As to conditions: Comparative Test Example: wheat (cv; Shirogane), foliar spray 500 ppm, inoculated after 5 days, observed after 1+8 days. As to the method: The spores of wheat rust fungi (Puccinia recondita) were sprinkling-inoculated. After inoculation, the plants were placed under a dark and humid condition at 23° C. for 1 day and were then cultivated at 20° C. under lighting for 8 days and a lesion area was observed.
Regarding `Cc1cc(C)n(-c2ccc(OCc3ccccc3-n3nnn(C)c3=O)c(Cl)c2)n1` [control compound, 1-{2-{2-chloro-4-(3,5-dimethyl-pyrazole-1-yl)-phenoxymethyl}-phenyl}-4-methyl-1,4-dihydrotetrazole-5-one], the “lesion area compared to the lesion area in untreated plants” value is at least 70%.

Another experiment concerns cotton aphid (Aphis gossypii). In words: Cotton aphid control test, spray on infested cucumber. As to conditions: 144 h, 20 mL sprayed on cucumber with 30 aphids, counted after 6 days. It counts as in vivo. As to the method:
Cucumber (cv; Sagami-hanjiro-fushinari) was grown in a polyethylene cup until the first true leaf was developed. Thirty (30) heads of cotton aphid (Aphis gossypii) (including the adults and the larvae) was released onto the leaves of the […] and next day, the above-mentioned testing drug dilutions 20 mL were sprayed. […] Control value (%)={1−(Cb×Tai)/(Cai×Tb)}×100 wherein the symbols in the formula represent the following descriptions. Cb: Number of the insects before treatment in untreated area; Cai: Number of the insects at the time of the observation in untreated area; Tb: Number of the insects before treatment in treated area; Tai: Number of the insects at the time of the observation in treated area;
The term pest or weed control denotes the degree to which the test organism was suppressed or injured, in per cent. A low value points to a weak effect. `Cc1cc(C)n(-c2ccc(OCc3c(Cl)cccc3-n3nnn(C)c3=O)c(Cl)c2)n1` [Present compound 9, 1-{3-chloro-2-[2-chloro-4-(3,5-dimethyl-pyrazol-1-yl)-phenoxymethyl]-phenyl}-4-methyl-1,4-dihydrotetrazole-5-one] yielded a pest or weed control at 500 ppm of at least 90%.
Same read-out and setting: the figure for `Cc1cc(C)n(-c2ccc(OCc3c(Cl)cccc3-n3nnn(C)c3=O)cc2Cl)n1` [Present compound 11, 1-{3-chloro-2-[3-chloro-4-(3,5-dimethyl-pyrazol-1-yl)-phenoxymethyl]-phenyl}-4-methyl-1,4-dihydrotetrazole-5-one] is at least 90%; for `Cc1ccn(-c2ccc(OCc3c(C)cccc3-n3nnn(C)c3=O)c(C)c2)n1` [Present compound 22, 1-{3-methyl-2-[2-methyl-4-(3-methyl-pyrazol-1-yl)-phenoxymethyl]-phenyl}-4-methyl-1,4-dihydrotetrazole-5-one] it is at least 90%.
Same read-out and setting: to `CCc1cccc(-n2nnn(C)c2=O)c1COc1ccc(-n2nc(C)cc2C)cc1C` [Present compound 50, 1-{3-ethyl-2-[2-methyl-4-(3,5-dimethyl-pyrazol-1-yl)-phenoxymethyl]-phenyl}-4-methyl-1,4-dihydrotetrazole-5-one] belongs at least 90%.
In the case of `CCc1cccc(-n2nnn(C)c2=O)c1COc1ccc(-n2cc(C)c(C)n2)cc1C` [Present compound 53, 1-{3-ethyl-2-[2-methyl-4-(3,4-dimethyl-pyrazol-1-yl)-phenoxymethyl]-phenyl}-4-methyl-1,4-dihydrotetrazole-5-one], the pest or weed control at 500 ppm is at least 90%.
Same read-out and setting: to `CCc1cccc(-n2nnn(C)c2=O)c1COc1ccc(-c2cc(C)n(C)n2)cc1C` [Present compound 59, 1-{3-ethyl-2-[2-methyl-4-(1,5-dimethyl-1H-pyrazol-3-yl)-phenoxymethyl]-phenyl}-4-methyl-1,4-dihydrotetrazole-5-one] belongs at least 90%.
Still for that read-out and setting: to `COc1cccc(-n2nnn(C)c2=O)c1COc1ccc(-c2cnn(C)c2)cc1C` [Present compound 68, 1-{3-methoxy-2-[2-methyl-4-(1-methyl-1H-pyrazole-4-yl)-phenoxymethyl]-phenyl}-4-methyl-1,4-dihydrotetrazole-5-one] belongs at least 90%; to `COc1cccc(-n2nnn(C)c2=O)c1COc1ccc(-c2cnn(CC(C)C)c2)cc1C` [Present compound 77, 1-{3-methoxy-2-[2-methyl-4-(1-isobutyl-1H-pyrazole-4-yl)-phenoxymethyl]-phenyl}-4-methyl-1,4-dihydrotetrazole-5-one], at least 90%; to `CCn1ccc(-c2ccc(OCc3c(OC)cccc3-n3nnn(C)c3=O)c(C)c2)n1` [Present compound 87, 1-{3-methoxy-2-[2-methyl-4-(1-ethyl-1H-pyrazol-3-yl)-phenoxymethyl]-phenyl}-4-methyl-1,4-dihydrotetrazole-5-one], at least 90%.
The same measure, in the same setting: the figure for `COc1cccc(-n2nnn(C)c2=O)c1COc1ccc(-c2ccn(S(C)(=O)=O)n2)cc1C` [Present compound 112, 1-{3-methoxy-2-[2-methyl-4-(1-methanesulfonyl-1H-pyrazol-3-yl)-phenoxymethyl]-phenyl}-4-methyl-1,4-dihydrotetrazole-5-one] is at least 90%; for `CCOc1cccc(-n2nnn(C)c2=O)c1COc1ccc(-n2cc(C)c(C)n2)cc1C` [Present compound 129, 1-{3-ethoxy-2-[2-methyl-4-(3,4-dimethyl-pyrazol-1-yl)-phenoxymethyl]-phenyl}-4-methyl-1,4-dihydrotetrazole-5-one] it is at least 90%; for `COc1cccc(-n2nnn(C)c2=O)c1COc1ccc(-c2nn(C)cc2C)cc1Cl` [Present compound 154, 1-{3-methoxy-2-[2-chloro-4-(1,4-dimethyl-1H-pyrazol-3-yl)-phenoxymethyl]-phenyl}-4-methyl-1,4-dihydrotetrazole-5-one] it is at least 90%.
`CCc1cccc(-n2nnn(C)c2=O)c1COc1ccc(-c2nn(C)c(Cl)c2C)cc1C` [Present compound 206, 1-{3-ethyl-2-[2-methyl-4-(5-chloro-1,4-dimethyl-1H-pyrazol-3-yl)-phenoxymethyl]-phenyl}-4-methyl-1,4-dihydrotetrazole-5-one] showed a pest or weed control at 500 ppm of at least 90%.
On the same count and under the same terms, the figure for `Cc1cc(-c2nn(C)c(Cl)c2C)ccc1OCc1c(-n2nnn(C)c2=O)cccc1C(F)(F)F` [Present compound 209, 1-{2-[2-methyl-4-(5-chloro-1,4-dimethyl-1H-pyrazol-3-yl)-phenoxymethyl]-3-trifluoromethyl-phenyl}-4-methyl-, 4-dihydrotetrazole-5-one] is at least 90%; for `CCOc1cccc(-n2nnn(C)c2=O)c1COc1ccc(-c2nn(C)c(Cl)c2C)cc1C` [Present compound 210, 1-{3-ethoxy-2-[2-methyl-4-(5-chloro-1,4-dimethyl-1H-pyrazol-3-yl)-phenoxymethyl]-phenyl}-4-methyl-1,4-dihydrotetrazole-5-one] it is at least 90%.
